According to patent publication US20260014173A1, “Nutritional composition for stroke” (N.V. Nutricia, priority 2022, published 2026):

How the values were obtained:
[1] = system: PC12 pheochromocytoma cells; experiment: Neurite outgrowth in in vitro PC12 neuronal cell model (NGF, no hypoxia), Examples 5 and 6; assay type: cell-based; conditions: total concentration of 20 μM choline from chol-CI, PC or both, control set at 100%
Procedure: The effects of nutrient supplementation on neurite outgrowth parameters in PC12 pheochromocytoma cells was also assessed.
PC12 pheochromocytoma cells were grown in DMEM (Gibco), supplemented with 10% fetal bovine serum (FBS), penicillin (100 units/ml), and streptomycin (100 μg/ml) (Gibco), under a humidified atmosphere with 95% air and 5% CO2 at 37° C. Cells were seeded in collagen (0.01 mg/ml) coated 96 well plates at a density of 5000 cells/well and after 24 hours supplemented with medium containing 20 ng/ml nerve growth factor (NGF) with or without coenzyme Q10 (1 μM), vitamin D3 ((0.25 μM), vitamin B2 (0.5 μM), DHA (6.7 μM), a source of choline (20 μM phosphatidylcholine, PC) or a mixture thereof.
In the PC12 experiments the cells were not exposed to hypoxia.
Docosahexaenoic acid (DHA) was resuspended in absolute ethanol and diluted 5 times in fetal bovine serum. All compounds were purchased from Sigma (Zwijndrecht, The Netherlands).
Supplementation of cells was performed in 6-fold in 96 wells plates. These conditions were compared to non-supplemented cells. After supplementation for 48 hours with these combinations, cells were stained using Calcein-AM stain (2 ng/μl) and the nuclei were counterstained using Hoechst stain (0.6 μg/ml), in 100 μl culture medium per well and incubated for 20 min at 37° C. Subsequently, FITC and DAPI images (9 images per well for 96 wells plate) were taken using an ImageXpress high content imaging system. Neurite length was quantified using the neurite outgrowth module in MetaXpress.
Nutrients were supplemented alone (100% chol-CI or 100% PC) and in a ratio of 60:40 and 40:60 of chol-CI to PC. Supplementation of cells was performed in 6-fold in 96 wells plates at a total concentration of 20 μM choline, derived from chol-CI, from PC, or from both. The neurite outgrowth in these conditions were compared to non-supplemented PC12 cells.

[2] = system: Mouse primary cortical neurons (E14); experiment: Neurite outgrowth after hypoxia (oxygen glucose deprivation), cortical neuronal cultures, Example 3; assay type: cell-based; conditions: OGD 3.5 hrs; vitamin D3 30 nM, co-enzyme Q10 3 μM, vitamin B2 30 nM, alone or combined; supplemented immediately after OGD for 24 hrs; control set at 100%
Procedure: Mouse primary cortical neurons (E14) were seeded onto 96-well plates coated with poly-D-lysine. Cells (20.000 cells/well) were cultured in modified Neurobasal medium (containing B27, Pen/Strep, and GlutaMAX). Cell cultures were incubated at 37° C. in 5% CO2 and medium was replaced every 2-3 days. At day 2 of in vitro culturing, cells underwent oxygen glucose deprivation (OGD) for 3.5 hrs. In order to induce glucose deprivation, modified Neurobasal medium was replaced with an equivalent volume of HBSS. For hypoxia, cells were placed in a humidity-controlled incubator (Whitley H35 Hypoxystation) set to 0.5% O2, 94.5% N2 and 5% CO2 at 37° C. for 3.5 hrs. After the hypoxic incubation period, HBSS was removed and replaced with modified Neurobasal medium, and plates returned to normoxic conditions and incubated at 37° C. in 5% CO2 for an additional 24 hrs. […] Nutrients were supplemented either alone, in combination of two, or in combination of three, starting immediately after the OGD and lasting for another 24 hrs. Every condition was tested in triplicate. […] At the end of the experiment, plates were fixed PFA for 5 min at room temperature. Then, cells were permeabilized and blocked using PBS containing 10% normal goat serum, 0.1% sodium azide and 0.2% Triton X-100. Cells were stained overnight with a monoclonal anti-beta-tubulin III antibody (Sigma Aldrich, T8578). Next, cells were stained with the secondary antibody Alexa Fluor 488 Goat anti-Mouse IgG (H+L) (Invitrogen A11001 Fisher, 10256302). Nuclei were stained with Hoechst 33342 (Thermofisher, H3570). Images were taken at a magnification of 20× in 12 fields of view using In Cell Analyser 2000.

| Molecule | neurite outgrowth compared to unsupplemented control PC12 cells [1] | neurite outgrowth compared to unsupplemented control PC12 cells ([1]; listed as PC) | neurite outgrowth after hypoxia relative to control [2] |
| --- | --- | --- | --- |
| phosphatidylcholine [100% PC] | increases neurite outgrowth slightly more than supplementation with 100% chol-CI | slightly better effect on neurite outgrowth than choline chloride |  |
| Cc1cc2nc3c(=O)[nH]c(=O)nc-3n(C[C@H](O)[C@H](O)[C@H](O)CO)c2cc1C [vitamin B2, riboflavin] |  |  | did not affect neurite outgrowth |
| COC1=C(OC)C(=O)C(C/C=C(\C)CC/C=C(\C)CC/C=C(\C)CC/C=C(\C)CC/C=C(\C)CC/C=C(\C)CC/C=C(\C)CC/C=C(\C)CC/C=C(\C)CCC=C(C)C)=C(C)C1=O [co-enzyme Q10, 2,3 dimethoxy-5 methyl-6-decaprenyl benzoquinone] |  |  | did not affect neurite outgrowth |
| C[N+](C)(C)CCO.[Cl-] [100% chol-CI, choline chloride] | improved neurite outgrowth |  |  |
| C=C1CC[C@H](O)C/C1=C/C=C1\CCC[C@]2(C)[C@@H]([C@H](C)CCCC(C)C)CC[C@@H]12 [vitamin D3, cholecalciferol] |  |  | did not affect neurite outgrowth |
